Like-named read-outs stand apart in the source and are kept apart here.
Legend:
GPR40 [1] = target: T1, GPR40 (Homo sapiens (Human), UniProt O14842); assay: GPR40 protein activity by intracellular calcium concentration (Fluo-4, Flexstation 3) in transfected HEK-293 cells; type: cell-based; conditions: HEK-293 cells transfected with human GPR40, intracellular calcium
Description: The GPR40 protein activity according to the novel 3-(4-(benzyloxy)phenyl)hex-4-inoic acid derivative of the present invention was measured by investigating the changes in intracellular calcium concentration affected by the GRP40 activation. First, HEK-293 cells were transfected with human GPR40 DNA (Origene, RC218370) by using Fugene HD (Promega, E2311). […] 24 hours later, the cell culture medium was replaced with Dulbecco's Modified Eagle Medium (DMEM, 50 μl/well) supplemented with 1% fetal bovine serum (FBS). To measure the calcium concentration, 50 μl of Fluo-4 reagent (Invitrogen, F10471) was added to each well, followed by culture in a 37° C. incubator for 2 hours. […] 2 hours after the culture began, those prepared samples were automatically injected to the cells by using Flexstation 3 (Molecular Devices). Then, intracellular calcium concentration was measured for 120 seconds by using SoftMax® Pro software. At this time, dimethylsulfoxide (DMSO) was injected to the cells for the non-treated group, followed by measuring the calcium concentration therein. The GPR40 protein activity was calculated by the below mathematical formula 1 with the results of calcium concentration measurement. GPR40 activity=(intracellular calcium concentration increased by the sample)/(intracellular calcium concentration of the non-treated group)×100 [Mathematical Formula 1]

CYP1A2 = CYP1A2 (Homo sapiens (Human), UniProt P05177); assay: CYP inhibition (BD GENTEST kit); type: in vitro ADME; conditions: pH 7.4
Description: (§1) CYP is the enzyme involved in drug metabolism. So, the inhibition of this enzyme can change the prediction of dose of a drug and toxicity caused by the co-treatment with other drugs. Therefore, the inventors measured the inhibitory effect of the compounds of Examples of the invention on endogenous CYP3A4, CYP2C9, CYP1A2, CYP2D6, and CYP2C19. […] To prepare the Invitrogen kit, the test sample was diluted in distilled water at 2.5× of the final experimental concentration.
(§2) The test sample for BD GENTEST kit was diluted in acetonitrile at 50× of the final experimental concentration. NADPH-coenzyme mixture was prepared by diluting the coenzyme, G6PDH, and regulatory protein included in the kit with distilled water at the concentration instructed by the kit. The prepared 50× sample (4 μL) and the NADPH-coenzyme mixture (96 μL) were mixed in each well of U-bottom 96-well plate, followed by pre-culture for 10 minutes in a 37° C. incubator. Enzyme/substrate mixed solution was prepared by diluting the buffer (0.5 M potassium phosphate, pH 7.4), each CYP450 enzyme/substrate mixed solution included in the kit with distilled water at the instructed concentration. Upon completion of the pre-culture, 100 μL of the enzyme/substrate mixed solution was added in each well of the plate, followed by culture in a 37° C. incubator for 15 minutes (CYP 1A2), 30 minutes (CYP 3A4 and CYP 2C19) or 1 and half hours (CYP 2C9). […] The values obtained above were converted into % as the inhibition rate of the sample by the value of the non-treated group.

CYP2C19 = CYP2C19 (Homo sapiens (Human), UniProt P33261); assay: CYP inhibition (BD GENTEST kit); type: in vitro ADME; conditions: pH 7.4, read-out: CYP inhibition (%) 2C19
Description: as §1, §2

CYP2C9 = CYP2C9 (Homo sapiens (Human), UniProt P11712); assay: CYP inhibition (BD GENTEST kit); type: in vitro ADME; conditions: pH 7.4, read-out: CYP inhibition (%) 2C9
Description: as §1, §2

CYP2D6 = CYP2D6 (Homo sapiens (Human), UniProt P10635); assay: CYP inhibition (Invitrogen Vivid kit); type: in vitro ADME; conditions: probe Vivid CYP450 substrate, read-out: CYP inhibition (%) 2D6
Description: (§3) CYP is the enzyme involved in drug metabolism. So, the inhibition of this enzyme can change the prediction of dose of a drug and toxicity caused by the co-treatment with other drugs. Therefore, the inventors measured the inhibitory effect of the compounds of Examples of the invention on endogenous CYP3A4, CYP2C9, CYP1A2, CYP2D6, and CYP2C19. At this time, Invitrogen (P2862) was used as the CYP2D6 inhibition kit, and BD GENTEST (459100, 459300, 459400, 459500) was used as the CYP1A2, CYP2C9, CYP2C19, and CYP3A4 inhibition kit. To prepare the Invitrogen kit, the test sample was diluted in distilled water at 2.5× of the final experimental concentration.
P450 BACULOSOMES® reagent and reproducer (100×) included in Invitrogen kit were diluted in Vivid® CYP450 reaction buffer (2×) at the concentration that matched the target CYP450. The prepared 2.5× sample (80 μL) and the diluted P450 BACULOSOMES® reagent mixture (100 μL) were mixed in each well of U-bottom 96-well plate, followed by pre-culture for 20 minutes. Vivid® CYP450 substrate and NADP+ (100×) were diluted in Vivid® CYP450 reaction buffer (2×) at the concentration that matched the target CYP450 and the substrate. Upon completion of the pre-culture, substrate-NADP (nicotinamide adenine dinucleotide phosphate) mixed solution (20 μL) was added thereto, followed by reaction for 1 hour. Upon completion of the reaction, the reactant was transferred onto the white plate, and then fluorescence was measured with a microplate reader (CYP 2D6 excitation wavelength: 400 nm, absorption wavelength: 502 nm). […]

CYP3A4 = CYP3A4 (Homo sapiens (Human), UniProt P08684); assay: CYP inhibition (BD GENTEST kit); type: in vitro ADME; conditions: pH 7.4, read-out: CYP inhibition (%) 3A4
Description: as §3
The test sample for BD GENTEST kit was diluted in acetonitrile at 50× of the final experimental concentration. NADPH-coenzyme mixture was prepared by diluting the coenzyme, G6PDH, and regulatory protein included in the kit with distilled water at the concentration instructed by the kit. The prepared 50× sample (4 μL) and the NADPH-coenzyme mixture (96 μL) were mixed in each well of U-bottom 96-well plate, followed by pre-culture for 10 minutes in a 37° C. incubator. Enzyme/substrate mixed solution was prepared by diluting the buffer (0.5 M potassium phosphate, pH 7.4), each CYP450 enzyme/substrate mixed solution included in the kit with distilled water at the instructed concentration. Upon completion of the pre-culture, 100 μL of the enzyme/substrate mixed solution was added in each well of the plate, followed by culture in a 37° C. incubator for 15 minutes (CYP 1A2), 30 minutes (CYP 3A4 and CYP 2C19) or 1 and half hours (CYP 2C9). Upon completion of the reaction, the reactant was transferred onto the white plate, and then fluorescence was measured with a microplate reader (CYP 1A2 and CYP 2C19 excitation wavelength: 410 nm, absorption wavelength: 460 nm; CYP 2C9 and CYP 3A4 excitation wavelength: 409 nm, absorption wavelength: 530 nm). The values obtained above were converted into % as the inhibition rate of the sample by the value of the non-treated group.

GPR40 [2] = target: T1, GPR40; assay: Calcium flux GPCR agonist assay (Millipore GPCR profiler, FLIPR TETRA)
Description: The compounds of Examples of the invention dissolved in DMSO (dimethyl sulfoxide), PBS (phosphate buffered saline), and DW (distilled water), etc, were diluted three-times with EMD Millipore's GPCR profiler assay buffer. […] Each well was filled with EMD Millipore's GPCR profiler assay buffer. The said EMD Millipore's GPCR profiler assay buffer was HBSS (Hanks Balanced Salt Solution) containing 20 mM HEPES (4-(2-hydroxyethyl)-1-piperazineethanesulfonic acid) and 2.5 mM Probenecid (4-(dipropylsulfamoyl)benzoic acid), whose pH was regulated as 7.4.
The compounds of Examples were duplicated at each concentration. […] Agonist assay was performed by using FLIPR^TETRA. Fluorescence and luminescence baseline were measured. […] To measure the activity of those compounds of Examples, GPCR activity assay was performed for 180 seconds.
When the assay data were not satisfactory, an additional experiment was performed.
All the concentration dependent graphs were made by using GraphPad Prism. The graph was modified by Sigmoidal dose response.

[3] = CYP2C19 enzyme of BD GENTEST inhibition kit
[4] = CYP2C9 enzyme of BD GENTEST inhibition kit
[5] = P450 BACULOSOMES reagent (Invitrogen Vivid CYP2D6 kit P2862)
[6] = CYP3A4 enzyme of BD GENTEST inhibition kit
[7] = CYP2C19 enzyme of the BD GENTEST CYP2C19 inhibition kit
[8] = CYP2C9 enzyme of the BD GENTEST CYP2C9 inhibition kit
[9] = CYP2D6 P450 BACULOSOMES reagent (Invitrogen kit P2862)
[10] = CYP3A4 enzyme of the BD GENTEST CYP3A4 inhibition kit

CYP3A4, sequence (P08684 whole entry): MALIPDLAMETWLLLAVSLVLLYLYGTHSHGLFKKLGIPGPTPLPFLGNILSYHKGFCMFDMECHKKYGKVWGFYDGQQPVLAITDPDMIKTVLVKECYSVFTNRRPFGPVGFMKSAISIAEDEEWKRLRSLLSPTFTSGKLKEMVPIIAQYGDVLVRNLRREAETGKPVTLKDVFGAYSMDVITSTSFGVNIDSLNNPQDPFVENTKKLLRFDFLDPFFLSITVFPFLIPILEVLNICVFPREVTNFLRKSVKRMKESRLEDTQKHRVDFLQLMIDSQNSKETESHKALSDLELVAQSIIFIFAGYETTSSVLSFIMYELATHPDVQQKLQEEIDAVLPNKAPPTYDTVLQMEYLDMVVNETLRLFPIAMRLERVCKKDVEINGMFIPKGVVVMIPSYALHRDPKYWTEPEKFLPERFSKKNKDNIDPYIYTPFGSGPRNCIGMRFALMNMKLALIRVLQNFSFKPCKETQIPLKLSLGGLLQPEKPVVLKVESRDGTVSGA
T1 sequence (O14842 whole entry): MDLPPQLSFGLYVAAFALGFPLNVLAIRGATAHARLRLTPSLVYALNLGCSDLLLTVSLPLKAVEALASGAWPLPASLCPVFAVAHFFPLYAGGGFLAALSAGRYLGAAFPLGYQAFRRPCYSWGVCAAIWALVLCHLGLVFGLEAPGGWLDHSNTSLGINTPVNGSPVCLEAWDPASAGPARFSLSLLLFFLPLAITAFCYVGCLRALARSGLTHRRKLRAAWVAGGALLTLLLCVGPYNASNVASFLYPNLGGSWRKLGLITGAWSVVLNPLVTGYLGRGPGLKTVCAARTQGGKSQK
CYP2D6, sequence (P10635 whole entry): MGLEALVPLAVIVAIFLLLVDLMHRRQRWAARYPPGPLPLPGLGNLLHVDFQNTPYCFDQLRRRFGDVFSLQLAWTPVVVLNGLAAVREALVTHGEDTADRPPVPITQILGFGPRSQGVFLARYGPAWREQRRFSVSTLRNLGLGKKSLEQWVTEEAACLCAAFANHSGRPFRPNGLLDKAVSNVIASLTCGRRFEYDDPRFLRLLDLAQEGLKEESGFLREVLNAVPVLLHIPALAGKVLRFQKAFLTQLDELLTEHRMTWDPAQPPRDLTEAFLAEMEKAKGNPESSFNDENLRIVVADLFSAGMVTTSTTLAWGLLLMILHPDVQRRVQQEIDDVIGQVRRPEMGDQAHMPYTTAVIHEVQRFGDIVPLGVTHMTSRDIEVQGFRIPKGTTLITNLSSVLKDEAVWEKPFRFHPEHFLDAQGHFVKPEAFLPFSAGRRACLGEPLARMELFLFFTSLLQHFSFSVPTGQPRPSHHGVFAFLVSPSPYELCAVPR
CYP2C9, sequence (P11712 whole entry): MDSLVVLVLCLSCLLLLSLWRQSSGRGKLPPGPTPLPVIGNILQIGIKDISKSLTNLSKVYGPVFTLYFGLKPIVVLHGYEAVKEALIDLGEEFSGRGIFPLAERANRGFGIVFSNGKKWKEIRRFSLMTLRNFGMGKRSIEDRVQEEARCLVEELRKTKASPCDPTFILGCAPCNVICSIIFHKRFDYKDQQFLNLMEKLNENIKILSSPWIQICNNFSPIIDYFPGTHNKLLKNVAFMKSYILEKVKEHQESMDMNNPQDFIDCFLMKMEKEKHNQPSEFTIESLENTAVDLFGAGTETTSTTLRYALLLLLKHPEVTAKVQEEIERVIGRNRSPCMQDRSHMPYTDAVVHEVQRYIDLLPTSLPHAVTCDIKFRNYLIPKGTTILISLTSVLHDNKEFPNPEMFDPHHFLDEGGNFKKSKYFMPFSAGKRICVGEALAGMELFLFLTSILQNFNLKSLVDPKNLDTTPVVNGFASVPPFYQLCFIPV
CYP1A2, sequence (P05177 whole entry): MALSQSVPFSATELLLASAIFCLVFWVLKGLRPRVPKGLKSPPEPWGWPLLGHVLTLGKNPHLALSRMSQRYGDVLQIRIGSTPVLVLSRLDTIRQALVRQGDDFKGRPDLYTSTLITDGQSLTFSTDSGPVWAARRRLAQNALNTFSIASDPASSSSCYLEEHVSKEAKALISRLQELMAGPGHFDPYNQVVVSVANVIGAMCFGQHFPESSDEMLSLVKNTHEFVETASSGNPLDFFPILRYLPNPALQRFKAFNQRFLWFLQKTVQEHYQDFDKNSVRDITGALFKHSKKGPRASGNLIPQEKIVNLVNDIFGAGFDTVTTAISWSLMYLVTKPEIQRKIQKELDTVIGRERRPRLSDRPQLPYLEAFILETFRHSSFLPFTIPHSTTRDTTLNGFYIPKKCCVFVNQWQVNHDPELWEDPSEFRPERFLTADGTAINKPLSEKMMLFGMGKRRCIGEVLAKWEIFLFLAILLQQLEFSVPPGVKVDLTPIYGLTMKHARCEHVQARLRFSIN
CYP2C19, sequence (P33261 whole entry): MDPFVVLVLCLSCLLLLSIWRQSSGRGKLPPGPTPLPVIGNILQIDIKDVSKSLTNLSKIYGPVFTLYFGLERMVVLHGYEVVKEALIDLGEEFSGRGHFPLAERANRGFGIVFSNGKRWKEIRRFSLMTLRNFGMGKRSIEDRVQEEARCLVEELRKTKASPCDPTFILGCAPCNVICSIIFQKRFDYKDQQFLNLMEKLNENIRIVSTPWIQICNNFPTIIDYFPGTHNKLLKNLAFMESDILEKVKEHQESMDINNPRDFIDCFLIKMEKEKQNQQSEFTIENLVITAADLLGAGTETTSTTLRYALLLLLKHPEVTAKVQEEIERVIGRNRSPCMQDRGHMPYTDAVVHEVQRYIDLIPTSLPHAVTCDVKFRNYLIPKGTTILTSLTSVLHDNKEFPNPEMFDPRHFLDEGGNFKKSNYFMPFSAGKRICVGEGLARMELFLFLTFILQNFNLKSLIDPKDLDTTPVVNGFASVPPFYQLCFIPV

SMILES | EC50 (GPR40 [1]; read-out: EC50) [nM] | inhibition at 15 min, 10 µM (CYP1A2) [%] | inhibition at 30 min, 10 µM (CYP2C19; [3]) [%] | inhibition at 1.5 h, 10 µM (CYP2C9; [4]) [%] | inhibition at 1 h, 10 µM (CYP2D6; [5]) [%] | inhibition at 30 min, 10 µM (CYP3A4; [6]) [%] | EC50 (GPR40 [2]) [nM] | inhibition at 30 min, 10 µM (CYP2C19; [7]) [%] | inhibition at 1.5 h, 10 µM (CYP2C9; [8]) [%] | inhibition at 1 h, 10 µM (CYP2D6; [9]) [%] | inhibition at 30 min, 10 µM (CYP3A4; [10]) [%] | EC50 (GPR40 [1]; values in text, read-out: EC50, concentration promoting activation of GPR40 protein by 50%) [nM]
CC#C[C@@H](CC(=O)O)c1ccc(OCc2ccc(CN3CCC4(C=Cc5ccccc54)CC3)cc2)cc1 [Comparative Example 2, (3S)-3-(4-{[4-(1′H-spiro[indene-1,4′-piperidine]-1′-ylmethyl)benzyl]oxy}phenyl)hex-4-inoic acid, reference compound] | > 300 | 0 | 34.5 | 43.9 | 63.2 | 42 | – | – | – | – | – | –
O=C(O)CCc1ccc(NCc2cccc(Oc3ccccc3)c2)cc1 [Comparative Example 3, 4-(3-phenoxybenzylamino)phenylpropionic acid, reference compound] | – | – | – | – | – | – | 27 | – | – | – | – | –
CC#CC(CC(=O)O)c1ccc(OCc2ccc(C3=CCC4(CC3)OCCO4)cc2)cc1 (stereo not shown) [Example 3] | > 300 | 0 | – | – | – | – | – | 19.4 | 21.1 | 6 | 33.1 | –
CC#CC(CC(=O)O)c1ccc(OCc2cccc(C3=CCC(=O)CC3)c2)cc1 (stereo not shown) [Example 4, 3-(4-(3-(4-oxocyclohex-1-enyl)benzyloxy)phenyl)hex-4-ynoic acid] | > 300 | 0 | 45.4 | 41.5 | 19.3 | 35 | – | – | – | – | – | –
CC#C[C@@H](CC(=O)O)c1ccc(OCc2cccc(C3=CCC4(CC3)OCCO4)c2)cc1 [Example 7, (3S)-3-(4-(3-(1,4-dioxaspiro[4,5]dec-7-en-8-yl)benzyloxy)phenyl)hex-4-ynoic acid] | < 200 | 4.3 | 3.7 | 47.1 | 13.9 | 15.5 | – | – | – | – | – | < 200
CC#C[C@@H](CC(=O)O)c1ccc(OCc2ccc(CN3CCc4ccccc4C3)cc2)cc1 [Example 21, (S)-3-(4-(4-((3,4-dihydroisoquinoline-2(1H)-yl)methyl)benzyloxy)phenyl)hex-4-ynoic acid] | 200 to 300 | 4 | 46.5 | 75.9 | 16.1 | 27.3 | – | – | – | – | – | –
CC#C[C@@H](CC(=O)O)c1ccc(OCc2ccc(CN3CCC(c4ccccc4)CC3)cc2)cc1 [Example 26, (S)-3-(4-(4-((4-phenylpiperidine-1-yl)methyl)benzyloxy)phenyl)hex-4-ynoic acid] | > 300 | 0.7 | 13.2 | 31.5 | 2.3 | 14.1 | – | – | – | – | – | –
CC#C[C@@H](CC(=O)O)c1ccc(OCc2ccc(CN3CCN(c4ccc(OCOC)cc4)CC3)cc2)cc1 [Example 29, (S)-3-(4-(4-((4-(4-(methoxymethoxy)phenyl)piperazine-1-yl)methyl)benzyloxy)phenyl)hex-4-ynoic acid] | 200 to 300 | 0.7 | 9.7 | 26.7 | 18.2 | 0 | – | – | – | – | – | –
CC#C[C@@H](CC(=O)O)c1ccc(OCc2ccc(CN3CCN(c4ccc(OCCCS(C)(=O)=O)cc4)CC3)cc2)cc1 [Example 36, (S)-3-(4-(4-((4-(4-(3-(methylsulfonyl)propoxy)phenyl)piperazine-1-yl)methyl)benzyloxy)phenyl)hex-4-ynoic acid] | > 300 | 16.6 | 10.8 | 0 | 1.8 | 11.5 | – | – | – | – | – | –
CC#C[C@@H](CC(=O)O)c1ccc(OCc2ccc(CN3Cc4ccccc4C3)cc2)cc1 [Example 38, L-lysine (S)-3-(4-(4-(isoindoline-2-ylmethyl)benzyloxy)phenyl)hex-4-ynoate] | – | 2.2 | – | – | – | – | – | 13.2 | 34.4 | 15.6 | 18.1 | –
CC#C[C@@H](CC(=O)O)c1ccc(OCc2ccc(CN3CCN(c4ccc(OC)cc4)CC3)cc2)cc1 [Example 40, (S)-3-(4-(4-((4-(4-methoxyphenyl)piperazine-1-yl)methyl)benzyloxy)phenyl)hex-4-ynoic acid] | 200 to 300 | 9.7 | 19.5 | 18.4 | 17.9 | 0 | – | – | – | – | – | –

From patent US9969723B2, “3-(4-(benzyloxy)phenyl)hex-4-ynoic acid derivative, method of preparing same and pharmaceutical composition for preventing and treating metabolic disease including same as effective ingredient” (HYUNDAI PHARM CO., LTD, priority 2014, dated 2018)
